Test results from patent publication US20170151278A1, “T[…] RELEASING SYSTEM” (priority 2014, published 2017).

Key:
[1] = CO release from CORM-2 suspension in Na2SO3 solution as a function of ionic strength; format: physicochemical; settings: n=3
Protocol: Experiments assessing the impact of the release medium on CO release (see FIG. 5A, 5B) were done in comparison to control experiments, within which 12 mg coated Na2SO3 crystals were measured in simulated gastric fluid without enzymes to control for possible detector interference with sulfites (interference was not observed with these experimental conditions; data not shown). Experiments assessing the impact of the coating procedure on CO release were done in comparison to control experiments, within which 3 mg CORM-2 was suspended in 25 mL of 0.333 g/L Na2SO3 solution (see FIG. 6 for results). In another set of control experiments, the impact of the ionic strength of the release medium and the impact of the salt with which the ionic strength was set (using sodium chloride solutions to set ionic strengths of 0.88 mol/L and 1.8 mol/L, respectively, and magnesium chloride to set an ionic strengths of 1.26 mol/L) on CO release was studied using CORM-2 suspensions. For that, CORM-2 was exposed to 25 mL of 0.333 g/L Na2SO3 in the appropriate release medium (for results, see FIG. 7).

[2] = CO release from CORM-2 suspension, amperometric detection in a sealed flask, triggered by Na2SO3; format: physicochemical
Description: An Erlenmeyer flask purchased from Gebr. Rettberg (Gottingen, Germany) was used as reaction space. For insertion of the CO sensor and to seal the reaction space, a conically tapered joint from Schott Medica (Wertheim, Germany) was equipped with a glass guide tube for an electric wire. As a prerequisite for cross referencing with calibration gas, a single-bore stopcock was connected to the Erlenmeyer flask as well as to the conically tapered joint. The integrated CO sensor of the “Ei207D” CO detector (Ei Electronics, Shannon, Ireland) was removed and externally connected using a “Wire Wrap” 0.404 mm^2 wire (Kabeltronik, Denkendorf, Germany) linked with a 1.3 mm accessory shoe (Vogt AG, Lostorf, Switzerland). The wire was glued into the guide tube with “UHU plus endfest” epoxide resin (UHU, Bũhl, Germany) to seal the system. On-line videos were collected monitoring the detector with USB webcams with the Eyeline video surveillance software (NCH Software, Canberra, Australia).
The CO release from CORM-2 was triggered by Na2SO3 and amperiometrically detected. For that, 4.3 mg CORM-2 were placed in the Erlenmeyer flask filled with 15 ml Millipore water and stirred at 130 rpm (Variomag Telesystem, Thermo Scientific, MA). After 25 minutes, 10 mg Na2SO3 were added to the reaction space. CO release in ppm as read from the detector of each system was calibrated with 100 ppm CO calibration gas (diluted in air; from Real Gas (Martinsried, Germany) and normalized, accordingly (see FIG. 1 for results).
A concentration series of CO was generated by transferring different amounts of CORM-2 into 25 mL of a stirred (130 rpm) 333 mg/L aqueous Na2SO3 solution. CO release [ppm] after 60-80 minutes was plotted against the amount of CORM-2 [mg] placed into the system. Following this procedure, CO release [ppm] is expressed as amount of CORM-2 [mg], with one CORM-2 equivalent being defined as the amount of CO released per milligram CORM-2 after 60-80 minutes and when exposed to the experimental conditions described in this section (see FIG. 2B for results). CO release from CORM-2 expressed in CORM-2 equivalents [mg] followed a linear pattern (y=0.0192+1.0199x; r^2>0.99; n=1 for 14 independent measurements).
CO data reported in the example is calculated from the corresponding release from CORM-2 equivalents and if reported for CORM-A1, calculated using linear regression. […] Therefore, CO loss by and from the system was quantified and basis for data correction. For the correction, the loss by and from the system was recorded and added to the data as read from the detector (vide infra). For assessment of CO loss and data correction, CO was generated from CORM-2 in presence of Na2SO3 with stirring at 130 rpm, until reaching a value of approximately 800 ppm. At this point the stirring was stopped. CO loss [ppm] was recorded when a value of 720 ppm was reached and followed an exponential decline (y=717.5*e−0.145x; r^2>0.99; n=5; see FIGS. 3A and 3B for results).

[C-]#[O+].[C-]#[O+].[C-]#[O+].[C-]#[O+].[C-]#[O+].[C-]#[O+].[Cl][Ru][Cl].[Cl][Ru][Cl] [CORM-2, Tricarbonyldichlororuthenium(II) dimer]
reduction of CO release ([1]; ionic strength 0.88 mol/L set with NaCl, compared with 0.008 mol/L): 26±9% | reduction of CO release ([1]; ionic strength 1.26 mol/L set with MgCl2): 50±3% | reduction of CO release ([1]; ionic strength 1.8 mol/L set with NaCl): 53±6% | CO release of CORM-2 suspended in water ([2]; 4.3 mg CORM-2 in 15 ml water, before Na2SO3 was added): no detectable CO release | time to complete CO release after Na2SO3 was added ([2]; 10 mg Na2SO3 added after 25 min): ≤ 25 min | CO release reached within the time frame ([2]; 60-80 minutes in 25 mL of 333 mg/L aqueous Na2SO3, stirred at 130 rpm): > 90% | time to half maximal CO release ([2]; CORM-2 suspension control, 3 mg in 25 mL of 0.333 g/L Na2SO3): 20 min | CO release plateau ([2]; after 40 minutes, Na2SO3 triggered): 550 ppm | time at which CO release plateaus (corrected data) ([2]; sulfite triggered, corrected for CO loss): approximately 140 minutes
